Marks after values point to notes of the source that are not given here.
Legend:
TxtB = TxtB substrate scope in TxtA/TxtB reactions; assay type: biochemical, S. scabies 87.22; parameters: key to TxtB substrate: +++++: Five ‘+’ represents the strong reactivity; ++++: The number of ‘+’ represents the reactivities of the enzymes to the substrate; +++: The number of ‘+’ represents the reactivities of the enzymes to the substrate; ++: The number of ‘+’ represents the reactivities of the enzymes to the substrate; +: one represent very weak reactivities
Procedure: Using the above strategy, it was determined that TxtB accepted only I-Trp among all 20 natural amino acids in the reaction (FIG. 2B, Table 1). When incubating with 15 I-Trp analogs with various substituents at α-position or C4, C5, C6 and C7 of I-Trp indole (Table 1), TxtB was able to use 4-F, 4-Me, 5-F, and 6-F-tryptophan as substrates in the DKP synthesis (Table 1). […] Indeed, the Micklefield group recently produced several thaxtomin analogs with C4-H, F, Cl, Br, or Me when expressing txtA/B in S. albus. The advanced understanding of substrate scopes of TxtA/B led to enzymatic creation of a library of 30 DKPs with 5 I-Trp analogs and 6 I-Phe analogs (FIG. 3C). The production of all DKPs were confirmed in HPLC analysis and verified in high resolution LC-MS analysis (Table 2).
(§1) TxtA/B reaction: 100 mM Tris-Cl (PH=8.0), 0.5 mM Nitro-L-tryptophan or L-tryptophan, 0.55 mM L-Phenylalanine, 3.2 μM txtA, 14.5 μM txtB, 2.5 mM ATP and 2 mM SAM in 100 μL reaction. 21° C. shaken with 400 rpm for 20 hours.
To probe the basis of chemical diversity of Thx DKP scaffold, next characterized was the substrate scopes of TxtA and TxtB. […] Bulkier aryl substituents decreased enzyme activity. […] From the modelled structure of TxtA adenylation (A) domain (FIG. 23), it was identified that Trp225 likely controls the binding of bulky L-Phe analogues. Indeed, the TxtA W225S mutant [Kries, H. et al. Angew. Chem. Int. Ed. Engl. […] We confirmed the product as p-azido-Thx D by HRMS, MS/MS, 1D and 2D NMR analysis (FIGS. 24-25). The substrate preference of TxtB was then assessed. […] Additionally, TxtB utilized 4F-L-, 5F-L-, 4Me-D,L- and 6F-D,L-Trp out of 15 L-Trp analogues carrying various substituents (Table 7) as substrates to synthesize desnitro dimethylated DKP analogues (FIG. 22). […] The tolerance to small modifications on L-Trp indole by TxtB agreed with a recent in vivo study by the Micklefield group [Winn, M. et al. Angew. Chem. Int. Ed. Engl. 2018 57:6830-6833]. […] Chem. Biol. 2018 14: 428-430].
(§2) The TxtA/B reaction solutions (100 μl) typically contained 100 mM Tris-Cl, pH 9.0, 0.5 mM amino acid substrates, 10 mM MgCl2, 2.5 mM ATP and 2 mM SAM. The reactions were initiated by adding 1.2 μM TxtA and 1.3 μM TxtB (final concentration) and incubated at 21° C. with shaking at 400 rpm. After 30 h, the reactions were terminated by mixing with 200 μl of methanol. Quenched solutions were centrifuged at 4° C., 16,000×g for 15 min and clear supernatants were collected and subjected to HPLC and LCMS analysis as detailed below. All experiments were repeated independently at least twice. The reaction solutions of TB14 and TxtA and TxtB were the same as those of TxtA and TxtB except the inclusion of 1.5 mM NAPDH, 0.75 mM NOC-5 and 11.1 μM TB14. The reactions were run for 30 h and the products were analyzed and quantitated as described above.

TxtA = TxtA substrate scope in TxtA/TxtB reactions; assay type: biochemical, S. scabies 87.22
Procedure: To explore whether TxtA/B are versatile to generate a library of thaxtomin D analogs, enzymes' substrate tolerance was then examined in the reactions. […] Subsequently, the substrate scope of TxtA with 17 I-Phe analogs was assessed with various substituents at α-position or C2, C3, and C4 of the aryl group (Table 1).
as §1
(§3) TB14 and txtA/B coupling reaction: 100 mM Tris-Cl (PH=8.0), 0.5 mM L-tryptophan, 0.55 mM L-Phenylalanine, 1.5 mM NAPDH, 0.75 mM NOC-5, 3.2 μM txtA, 14.5 μM txtB, 2.5 mM ATP, 2 mM SAM and 11.1 μM TB14 in 100 μL reaction. Opened to air, 21° C. shaken with 400 rpm for 30 hours.
(§4) To probe the basis of chemical diversity of Thx DKP scaffold, next characterized was the substrate scopes of TxtA and TxtB. […] Chem. Int. Ed. Engl. […] The substrate preference of TxtB was then assessed. […] Chem. Int. Ed. Engl. 2018 57:6830-6833]. […] Chem. Biol. 2018 14: 428-430].
as §2

TxtA-W225S = TxtA-W225S mutant substrate scope in TxtA/TxtB reactions; assay type: biochemical, S. scabies 87.22; conditions: for substrate preference of TxtAW225S mutant: Example 1; for TxtA-W225S substrate: Table 1, Example 1; for TxtAW225S substrate: Table 7, Example 2
Procedure: The nitro group of thaxtomins is essential for herbicidal activity, and is installed by TxtE. […] NADPH, NOC-5 as NO donor and SAM were included in the reaction. […] To further expand the substrate scope of TxtA, Trp225 was mutated into Ser in TxtA.
as §1, §3, §4, §2

radish seedlings = test: Herbicidal activity in radish seedling assay; assay type: in vivo; conditions: total seedling length after 7 days on agar, 0 to 2 μM, mean±SD (n=4)
Procedure: Established protocols were followed to quantitate thaxtomin herbicidal activity in radish seedling assay (Jiang, G. et al. Appl Environ Microbiol 2018 84:e00164-18). In brief, serial concentrations (0 to 2 μM) of thaxtomins in DMSO were added into 20 mL of 1.5% warm agar solution with gentle agitation to prepare agar plates. DMSO was included as the negative control. Radish seeds (Burpee) were surface disinfested, pregerminated and selected when the radicle was […] and just emerged from the seed coat. Six radish seedlings were equally located on the surface of each plate with root ends pointed to the same direction. Agar plates were covered, sealed with Parafilm. Seedlings in agar plates grew at room temperature under 14-16 h fluorescent light per day for 7 days, and total seedling lengths were then recorded. The longest and the shorted seedlings would be excluded from the data analysis. Percent inhibition relative to the mean growth response in negative control was then calculated. Dose-response curves were fit to a four-parameter logistic model, and I50 values were determined from these curves.

[1] = test system: TB14, TCB14, TxtA and TxtB; test: Conversion to thaxtomin A analogues in the reactions of TB14, TCB14, TxtA and TxtB; assay type: biochemical; conditions: thaxtomin A analogue product from the listed L-Phe and L-Trp analogues
[2] = Example 1, TxtA/B reaction with 4-NO2-L-Trp as TxtB substrate
[3] = Example 2, reaction of TB14, TxtA and TxtB

## Cc1cccc2[nH]cc(CC(N)C(=O)O)c12 (racemic) [4Me-D,L-Tryptophan]
TxtB; Table 1, Example 1
  TxtB substrate: ++
TxtB; Table 7, Example 2
  TxtB substrate: +++

## NC(Cc1c[nH]c2cc(F)ccc12)C(=O)O (racemic) [6F-Tryptophan, 6F-D,L-tryptophan]
TxtB; Table 1, Example 1
  TxtB substrate: ++
TxtB; Table 7, Example 2
  TxtB substrate: +

## N[C@@H](Cc1ccccc1Br)C(=O)O [2Br-L-phenylalanine]
TxtA; Table 1, Example 1
  TxtA substrate: +
TxtA; Table 7, Example 2
  TxtA substrate: +

## N[C@@H](Cc1ccccc1F)C(=O)O [2F-L-phenylalanine]
TxtA; [2]
  relative activity of TxtA toward substrate, relative to L-Phe: same level of activity
TxtA; [3]
  relative activity of TxtA toward substrate, relative to L-Phe: ~73%
TxtA; Table 1, Example 1
  TxtA substrate: ++++
TxtA; Table 7, Example 2
  TxtA substrate: ++++

## Cc1ccccc1C[C@H](N)C(=O)O [2Me-L-phenylalanine]
TxtA; Table 1, Example 1
  TxtA substrate: +++
TxtA; Table 7, Example 2
  TxtA substrate: ++

## N[C@@H](Cc1cccc(Br)c1)C(=O)O [3Br-L-phenylalanine]
TxtA; Table 1, Example 1
  TxtA substrate: +
TxtA; Table 7, Example 2
  TxtA substrate: +

## N[C@@H](Cc1cccc(Cl)c1)C(=O)O [3Cl-L-phenylalanine]
TxtA; Table 1, Example 1
  TxtA substrate: ++
TxtA; Table 7, Example 2
  TxtA substrate: +

## N[C@@H](Cc1cccc(F)c1)C(=O)O [3F-L-phenylalanine]
TxtA; [2]
  relative activity of TxtA toward substrate, relative to L-Phe: same level of activity
TxtA; [3]
  relative activity of TxtA toward substrate, relative to L-Phe: equally active
TxtA; Table 1, Example 1
  TxtA substrate: +++++
TxtA; Table 7, Example 2
  TxtA substrate: +++++

## Cc1cccc(C[C@H](N)C(=O)O)c1 [3Me-L-phenylalanine]
TxtA; [2]
  relative activity of TxtA toward substrate, relative to L-Phe: about 12%
TxtA; [3]
  relative activity of TxtA toward substrate, relative to L-Phe: about 27%
TxtA; Table 1, Example 1
  TxtA substrate: ++
TxtA; Table 7, Example 2
  TxtA substrate: ++

## [N-]=[N+]=Nc1ccc(C[C@H](N)C(=O)O)cc1 [4-Azidophenylalanine]
TxtA-W225S
  substrate preference of TxtAW225S mutant: strong preference
  TxtA-W225S substrate: ++
  TxtAW225S substrate: ++
TxtA-W225S; Example 2, reaction with TB14, TxtA and TxtB
  substrate preference of TxtA W225S mutant: strong preference over L-Phe
TxtA; [3]
  relative activity of TxtA toward substrate, relative to L-Phe: did not accept

## N[C@@H](Cc1c[nH]c2cccc([N+](=O)[O-])c12)C(=O)O [4-nitro-L-Tryptophan]
TxtB; Table 1, Example 1
  TxtB substrate: +++++
TxtB; Table 7, Example 2
  TxtB substrate: +++++

## N[C@@H](Cc1ccc(Br)cc1)C(=O)O [4Br-L-phenylalanine]
TxtA; Table 1, Example 1
  TxtA substrate: +
TxtA; Table 7, Example 2
  TxtA substrate: +

## N[C@@H](Cc1ccc(Cl)cc1)C(=O)O [4Cl-L-phenylalanine]
TxtA; Table 1, Example 1
  TxtA substrate: ++
TxtA; Table 7, Example 2
  TxtA substrate: +

## N[C@@H](Cc1c[nH]c2cccc(F)c12)C(=O)O [4F--Tryptophan, 4F-L-tryptophan]
TxtB; Table 1, Example 1
  TxtB substrate: +
TxtB; Table 7, Example 2
  TxtB substrate: +

## N[C@@H](Cc1ccc(F)cc1)C(=O)O [4F-L-phenylalanine]
TxtA; [2]
  relative activity of TxtA toward substrate, relative to L-Phe: ~72%
TxtA; Table 1, Example 1
  TxtA substrate: +++
TxtA; Table 7, Example 2
  TxtA substrate: ++

## Cc1ccc(C[C@H](N)C(=O)O)cc1 [4Me-L-phenylalanine]
TxtA; Table 1, Example 1
  TxtA substrate: +++
TxtA; Table 7, Example 2
  TxtA substrate: +

## Cc1ccc(C[C@@]2(O)C(=O)N(C)[C@@H](Cc3c[nH]c4cccc([N+](=O)[O-])c34)C(=O)N2C)cc1O [4′Me-Thx A, 4′Me-thaxtomin A]
Radish seedlings; Raphanus sativus, 168 h
  IC50: 410 ± 10 nM

## Cc1ccc(C[C@H]2C(=O)N(C)[C@@H](Cc3c[nH]c4cccc([N+](=O)[O-])c34)C(=O)N2C)cc1 [4′Me-Thx D, 4′Me-thaxtomin D]
Radish seedlings; Raphanus sativus, 168 h
  IC50: 480 ± 40 nM

## N[C@@H](Cc1c[nH]c2ccc(F)cc12)C(=O)O [5F-Tryptophan, 5F-L-tryptophan]
TxtB; Table 1, Example 1
  TxtB substrate: ++
TxtB; Table 7, Example 2
  TxtB substrate: ++

## N[C@@H](Cc1ccccc1)C(=O)O [L-phenylalanine]
TxtA-W225S
  TxtA-W225S substrate: +
  TxtAW225S substrate: +
TxtA; Table 1, Example 1
  TxtA substrate: +++++^a
TxtA; Table 7, Example 2
  TxtA substrate: +++++

## N[C@@H](Cc1c[nH]c2ccccc12)C(=O)O [L-tryptophan]
TxtB; Example 2, reaction without TB14
  TxtB activity, times less active than 4-NO2-L-Trp: 12 times
TxtB; Table 1, Example 1
  TxtB substrate: +
TxtB; Table 7, Example 2
  TxtB substrate: +

## N[C@@H](Cc1ccc(O)cc1)C(=O)O [L-tyrosine]
TxtA-W225S
  substrate preference of TxtAW225S mutant: lower activity
  TxtA-W225S substrate: ++

## CN1C(=O)[C@H](Cc2c[nH]c3cccc([N+](=O)[O-])c23)N(C)C(=O)[C@@H]1Cc1ccc(N=[N+]=[N-])cc1 [compound 42]
TxtA-W225S; catalyzed by TxtB and TxtAW225S (with TB14)
  Conversion rate %: 20.90%

## Cc1ccc(C[C@@]2(O)C(=O)N(C)[C@@H](Cc3c[nH]c4cccc([N+](=O)[O-])c34)C(=O)N2C)cc1O [compound 118]
[1]
  Conversion rate %: 3.98%

## Cc1cccc2[nH]cc(CC3C(=O)N(C)C(Cc4ccccc4)C(=O)N3C)c12 (centres unmarked) [desnitro-4Me-Thx D]
Radish seedlings
  IC50: 1980 ± 20 nM

## CN1C(=O)[C@H](Cc2c[nH]c3cccc([N+](=O)[O-])c23)N(C)C(=O)[C@@H]1Cc1ccc(N=[N+]=[N-])cc1 [p-N3-Thx D, p-N3-thaxtomin D]
Radish seedlings; Raphanus sativus, 168 h
  IC50: 1290 ± 210 nM
